Measurements as given in patent publication US7173019B2, “Linked cyclitols and their polysulfated derivatives” (The Australian National University, priority 2001, dated 2007).
Where two headings read alike, the source gives them in different places.

Legend:
[1] = molecular target: T1, human leukocyte Cathepsin G (Homo sapiens, UniProt P08311); test: Cathepsin G inhibition, fluorogenic substrate, 96 well assay; format: biochemical; settings: human leukocyte cathepsin G 100 ng, 37° C., 60 min, pH 6.6; read-out: Amount for 50% inhibition (converted)
T1 construct: human leukocyte Cathepsin G (100 ng protein); from tissue; host or cells: human leukocytes
T1 sequence (P08311 21-244): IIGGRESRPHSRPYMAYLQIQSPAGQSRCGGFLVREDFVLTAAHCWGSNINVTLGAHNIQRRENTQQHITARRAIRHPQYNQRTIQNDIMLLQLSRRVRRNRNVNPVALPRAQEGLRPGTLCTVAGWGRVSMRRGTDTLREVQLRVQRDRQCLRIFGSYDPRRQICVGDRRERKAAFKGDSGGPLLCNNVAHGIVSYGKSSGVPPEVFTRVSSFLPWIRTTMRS
Protocol: Cathepsin G activity was determined using a 96 well assay format in PVC microtitre U-bottom plates with activity determination by a fluorescence plate reader. Briefly, within a total incubation volume of 40 μl, human leukocyte Cathepsin G (100 ng protein) was added to a mixture of inhibitor and the fluorogenic substrate MeOSuc-ala-ala-pro-phe-AMAC in 50 mM-NaOAc buffer, pH 6.6 containing 50 mM NaCl and 0.1% (v/v) Brij 35. The mixture was incubated at 37° C. for 60 min, the reaction stopped by the addition of 40 μl of 250 mM acetic acid and the fluorescence determined with excitation at 360 nm and emitted light measured at 460 nm.
In this table, the linked cyclitol compound identifications are the same as those given in Section A above where the structures of the compounds are also given. With regard to the purity rating, a greater number of asterisks signifies a greater degree of purity with five asterisks signifying an essentially pure compound. The cathepsin G inhibition data are the concentrations of compounds required to inhibit the enzyme by 50%.

[2] = molecular target: T2, human platelet heparanase (Homo sapiens, UniProt Q9Y251); test: Heparanase inhibition, 3H-radiolabelled HS cleavage assay; format: biochemical; settings: for inhibition: based on a comparison with heparin with 100% inhibition at 30 μg/ml, read-out: Relative inhibition (%); for EC50: heparanase inhibition, read-out: EC50 (converted); for inhibition at 10 µg/mL: read-out: Inhibition (%) at 10 μg/ml
T2 construct: 10 ng of purified human platelet heparanase; from tissue; host or cells: human platelets
T2 sequence (Q9Y251 158-543 limits assumed): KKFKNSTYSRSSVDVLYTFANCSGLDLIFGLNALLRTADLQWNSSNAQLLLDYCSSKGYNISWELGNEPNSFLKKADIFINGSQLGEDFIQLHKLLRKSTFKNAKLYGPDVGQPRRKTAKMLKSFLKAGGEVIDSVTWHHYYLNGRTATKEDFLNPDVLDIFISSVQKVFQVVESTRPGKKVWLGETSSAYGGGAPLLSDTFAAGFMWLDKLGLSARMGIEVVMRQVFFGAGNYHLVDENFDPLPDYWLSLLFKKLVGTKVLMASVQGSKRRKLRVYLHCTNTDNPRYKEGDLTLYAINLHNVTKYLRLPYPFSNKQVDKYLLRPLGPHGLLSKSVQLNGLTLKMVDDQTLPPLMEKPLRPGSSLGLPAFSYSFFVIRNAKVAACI
T2 sequence (Q9Y251 36-109 limits assumed): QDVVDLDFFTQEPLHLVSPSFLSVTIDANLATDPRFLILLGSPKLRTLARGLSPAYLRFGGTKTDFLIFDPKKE
Protocol: Briefly, to an incubation mixture of […] containing ^3H-radiolabelled porcine mucosal HS […], 50 mM-sodium acetate buffer, pH 5.0, […] bovine serum albumin and the inhibitor to be tested, was added 10 ng of purified human platelet heparanase and the mixture incubated for 30 min. The reaction was terminated by freezing the assay tubes. The substrate was separated from the cleavage products on minicolumns of sepharose-bound histidine-rich glycoprotein (Freeman, C., and Parish, C. R. [1997], supra).
Inhibitory activity is based on a comparison with heparin with 100% inhibition at 30 μg/ml. The compounds were also tested at the same purity as in Example 15.

bFGF = bFGF (Homo sapiens, UniProt P09038); test: Biacore biosensor: inhibition of bFGF binding to immobilised heparin and heparan sulfate; settings: for inhibition at 0.034 µM: inhibitor 0.034 μM, bFGF 0.034 μM
Sequence of bFGF (P09038 134-288 limits assumed, species assumed): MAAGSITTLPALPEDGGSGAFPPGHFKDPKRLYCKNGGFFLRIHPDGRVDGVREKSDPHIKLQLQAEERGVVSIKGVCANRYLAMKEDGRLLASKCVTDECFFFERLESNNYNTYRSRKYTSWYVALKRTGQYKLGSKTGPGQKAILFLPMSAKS
Protocol: (§1) Assays were performed using a Biacore™ 2000 optical biosensor obtained from Biacore AB, Uppsala, Sweden. The biosensor was operated in accordance with the manufacturer's instructions. Briefly, neutravidin was covalently coupled to the surface of CM5 chips of the biosensor and then either biotinylated heparin (1 μg/ml) or biotinylated heparan sulfate ([…]) bound to the immobilised neutravidin. Mixtures of a test compound and a growth factor or other effector compound were preincubated for 2 to 5 minutes and the mixtures then added to individual biosensor cuvettes. Binding of growth factor or effector compound to the heparin or heparan sulfate was then monitored for approximately 5 minutes with the biosensor.
(§2) The tabulated values are the IC50 in μM or % inhibition of binding of the growth factor to the immobilised heparan sulfate (HS) or heparin.

aFGF = aFGF (Homo sapiens, UniProt P05230); test: Biacore biosensor: inhibition of aFGF binding to immobilised heparin and heparan sulfate; settings: inhibitor 0.034 μM, aFGF 0.025 μM
Sequence of aFGF (P05230 whole entry, species assumed): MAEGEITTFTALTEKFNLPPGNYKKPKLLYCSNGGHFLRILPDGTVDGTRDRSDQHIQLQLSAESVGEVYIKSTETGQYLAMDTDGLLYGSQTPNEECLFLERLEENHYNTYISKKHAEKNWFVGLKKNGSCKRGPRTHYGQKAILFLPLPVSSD
Protocol: as §1, §2

VEGF = molecular target: T3, VEGF (Homo sapiens, UniProt P15692); test: Biacore biosensor: inhibition of VEGF binding to immobilised heparin and heparan sulfate; settings: inhibitor 0.034 μM, VEGF 0.025 μM
T3 sequence (P15692 27-191 isoform P15692-4): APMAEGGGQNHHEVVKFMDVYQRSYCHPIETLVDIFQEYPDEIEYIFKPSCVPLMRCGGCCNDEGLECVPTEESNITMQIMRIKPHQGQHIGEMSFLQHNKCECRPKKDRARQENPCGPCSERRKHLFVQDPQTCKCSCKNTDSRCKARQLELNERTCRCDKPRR
Protocol: as §1, §2

IL-8 = molecular target: T4, IL-8 (Homo sapiens, UniProt P10145); test: Biacore biosensor: inhibition of IL-8 binding to immobilised heparin and heparan sulfate; settings: inhibitor 1.0 μM, IL-8 0.068 μM
T4 sequence (P10145 21-99): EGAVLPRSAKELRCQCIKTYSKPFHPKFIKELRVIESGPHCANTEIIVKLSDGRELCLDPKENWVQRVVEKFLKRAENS
Protocol: as §1

[3] = immobilised heparan sulfate, read-out: Inhibition of binding of bFGF (HS)
[4] = immobilised heparin, read-out: Inhibition of binding of bFGF (Hep)
[5] = immobilised heparan sulfate, read-out: Inhibition of binding of aFGF (HS)
[6] = immobilised heparin, read-out: Inhibition of binding of aFGF (Hep)
[7] = immobilised heparan sulfate, read-out: Inhibition of binding of VEGF (HS)
[8] = immobilised heparin, read-out: Inhibition of binding of VEGF (Hep)
[9] = immobilised heparan sulfate, read-out: Inhibition of binding of IL-8 (HS)
[10] = immobilised heparin, read-out: Inhibition of binding of IL-8 (Hep)

Compound	IC50 [1]	inhibition [2]	EC50 [2]	inhibition at 10 µg/mL [2]	inhibition at 0.034 µM (bFGF; [3])	inhibition at 0.034 µM (bFGF; [4])	IC50 (bFGF; immobilised heparin, read-out: IC50, inhibition of bFGF binding (Hep))	inhibition at 0.034 µM (aFGF; [5])	inhibition at 0.034 µM (aFGF; [6])	inhibition at 0.034 µM (VEGF; [7])	inhibition at 0.034 µM (VEGF; [8])	inhibition at 1 µM (IL-8; [9])	inhibition at 1 µM (IL-8; [10])
O=S(=O)(O)O[C@H]1[C@H](OS(=O)(=O)O)[C@@H](N(CCCCN([C@H]2C=C[C@@H](OS(=O)(=O)O)[C@@H](OS(=O)(=O)O)[C@@H]2OS(=O)(=O)O)[C@H]2C=C[C@@H](OS(=O)(=O)O)[C@@H](OS(=O)(=O)O)[C@@H]2OS(=O)(=O)O)[C@H]2C=C[C@@H](OS(=O)(=O)O)[C@@H](OS(=O)(=O)O)[C@@H]2OS(=O)(=O)O)C=C[C@H]1OS(=O)(=O)O [Compound 4g]	128 nM	57%	14100 nM	42%	44%	31%	> 250 nM	43%	44%	10%	21%	42%	67%
O=S(=O)(O)O[C@H]1[C@H](OS(=O)(=O)O)[C@@H](N(CCCCCCCN([C@H]2C=C[C@@H](OS(=O)(=O)O)[C@@H](OS(=O)(=O)O)[C@@H]2OS(=O)(=O)O)[C@H]2C=C[C@@H](OS(=O)(=O)O)[C@@H](OS(=O)(=O)O)[C@@H]2OS(=O)(=O)O)[C@H]2C=C[C@@H](OS(=O)(=O)O)[C@@H](OS(=O)(=O)O)[C@@H]2OS(=O)(=O)O)C=C[C@H]1OS(=O)(=O)O [Compound 4h]	318 nM	48%	20000 nM	33%	48%	40%	–	30%	28%	55%	68%	54%	52%
O=S(=O)(O)O[C@H]1[C@H](OS(=O)(=O)O)[C@@H](N(CCCCCCCCN([C@H]2C=C[C@@H](OS(=O)(=O)O)[C@@H](OS(=O)(=O)O)[C@@H]2OS(=O)(=O)O)[C@H]2C=C[C@@H](OS(=O)(=O)O)[C@@H](OS(=O)(=O)O)[C@@H]2OS(=O)(=O)O)[C@H]2C=C[C@@H](OS(=O)(=O)O)[C@@H](OS(=O)(=O)O)[C@@H]2OS(=O)(=O)O)C=C[C@H]1OS(=O)(=O)O [Compound 4i]	136 nM	53%	16100 nM	39%	51%	45%	–	28%	30%	71%	70%	89%	95%
O=S(=O)(O)O[C@H]1[C@H](OS(=O)(=O)O)[C@@H](N(CCCCCCCCCN([C@H]2C=C[C@@H](OS(=O)(=O)O)[C@@H](OS(=O)(=O)O)[C@@H]2OS(=O)(=O)O)[C@H]2C=C[C@@H](OS(=O)(=O)O)[C@@H](OS(=O)(=O)O)[C@@H]2OS(=O)(=O)O)[C@H]2C=C[C@@H](OS(=O)(=O)O)[C@@H](OS(=O)(=O)O)[C@@H]2OS(=O)(=O)O)C=C[C@H]1OS(=O)(=O)O [Compound 4j]	91.9 nM	73%	6130 nM	–	43%	46%	–	31%	31%	54%	64%	65%	62%
O=S(=O)(O)O[C@H]1[C@H](OS(=O)(=O)O)[C@@H](N(CCCCCN([C@H]2C=C[C@@H](OS(=O)(=O)O)[C@@H](OS(=O)(=O)O)[C@@H]2OS(=O)(=O)O)[C@H]2C=C[C@@H](OS(=O)(=O)O)[C@@H](OS(=O)(=O)O)[C@@H]2OS(=O)(=O)O)[C@H]2C=C[C@@H](OS(=O)(=O)O)[C@@H](OS(=O)(=O)O)[C@@H]2OS(=O)(=O)O)C=C[C@H]1OS(=O)(=O)O [Compound 4k]	133 nM	50%	–	39%	45%	36%	–	39%	43%	30%	41%	54%	67%
O=S(=O)(O)OC(CN([C@H]1C=C[C@@H](OS(=O)(=O)O)[C@@H](OS(=O)(=O)O)[C@@H]1OS(=O)(=O)O)[C@H]1C=C[C@@H](OS(=O)(=O)O)[C@@H](OS(=O)(=O)O)[C@@H]1OS(=O)(=O)O)CN([C@H]1C=C[C@@H](OS(=O)(=O)O)[C@@H](OS(=O)(=O)O)[C@@H]1OS(=O)(=O)O)[C@H]1C=C[C@@H](OS(=O)(=O)O)[C@@H](OS(=O)(=O)O)[C@@H]1OS(=O)(=O)O [Compound 4l]	292 nM	48%	17000 nM	–	43%	34%	–	47%	54%	0%	0%	46%	52%
